From paper PMC10303221, “Synthesis, In Silico Studies, and Antioxidant and Tyrosinase Inhibitory Potential of 2-(Substituted Phenyl) Thiazolidine-4-Carboxamide Derivatives” (Pharmaceuticals, 2023) come the findings set out here.

The nature of data set [1]: DPPH free radical scavenging assay (antioxidant activity). The settings on record: mean ± SD, triplicate; 30 min at 37 °C, absorbance 517 nm. The source says:
The 2,2-Diphenyl-1-picrylhydrazyl (DPPH) radical was used to evaluate the antioxidant potential of the synthesized compounds. Different concentrations of the samples were employed in the subject assay. […] The principle of this assay is related to the conversion of the purple-colored free radical into the pale-yellow-colored reduced form, owing to the action of a proton donating or antioxidant agent. […] Alternatively, compound 1d also acquired hydroxy groups on both mentioned positions. These groups are categorized as strong proton donors which tend to participate in the reduction in DPPH free radicals by donating protons.
The synthesized compounds were evaluated for their antioxidant activity by measuring their ability to scavenge DPPH free radicals. A previously described protocol was followed for this purpose. An amount of 20 µL of each of the four different dilutions of test samples (200, 66.66, 22.22, and 7.41 µg/mL) was added to 96-well plates containing 180 µL of DPPH solution. The absorbance at 517 nm was determined after incubating for 30 min at 37 °C. Ascorbic acid (1 mg/mL DMSO) was used as the positive control, and the assay was performed in triplicate. The IC50 values were also calculated using the % of inhibitions at different concentrations using Table Curve 2D Windows version 4.07.
(DPPH is a stable violet radical that fades when it is reduced.)

A further data set concerns the target mushroom tyrosinase (Agaricus bisporus, UniProt C7FF04). Briefly: Mushroom tyrosinase inhibitory assay (L-DOPA substrate, dopachrome absorbance at 492 nm). Format: biochemical. Particulars: compared with kojic acid. As for the experimental part:
An evaluation of the inhibitory effect on the tyrosinase enzyme was conducted on mushroom tyrosinase.
A tyrosinase inhibitory assay was conducted with the mushroom tyrosinase enzyme. An amount of 20 µL of mushroom tyrosinase (30 U/mL) was combined with 140 µL (20 mM, pH 6.8) of phosphate buffer. An amount of 20 µL of inhibitor solution was added to a 96-well microplate. Then pre-incubation at room temperature was conducted for 10 min. A solution of L-DOPA (20 μL—0.85 mM) was added. This was followed by the incubation of the plate for 20 min at 25 °C. Using a microplate reader (OPTIMax, Tunable), the absorbance of dopa-chrome was recorded at 492 nm.
The absorbance of dopa-chrome was measured at 492 nm using a microplate reader (OPTIMax, Tunable, San Jose, CA, USA). […] The IC50 values were used to express the extent of inhibition. The experiments were performed in triplicate for each concentration.

Converted amounts (≈) assume the structure as drawn.

Chain of mushroom tyrosinase (C7FF04 2-392): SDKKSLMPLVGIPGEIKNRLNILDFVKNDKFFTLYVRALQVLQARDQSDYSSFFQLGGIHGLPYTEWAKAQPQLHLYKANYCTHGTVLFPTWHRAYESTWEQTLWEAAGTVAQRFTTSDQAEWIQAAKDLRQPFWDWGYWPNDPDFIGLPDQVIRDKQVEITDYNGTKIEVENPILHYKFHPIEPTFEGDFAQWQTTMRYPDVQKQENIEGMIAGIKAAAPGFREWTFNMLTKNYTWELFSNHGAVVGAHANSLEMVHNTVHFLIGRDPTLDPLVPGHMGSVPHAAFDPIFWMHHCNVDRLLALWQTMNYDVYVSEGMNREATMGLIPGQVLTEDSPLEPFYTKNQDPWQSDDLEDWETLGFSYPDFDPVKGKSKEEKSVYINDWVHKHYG

For orientation: melting point means the temperature, or range, at which the solid turns liquid. In turn, `O=C(O)c1ccc(NC(=O)C2CSC(c3ccccc3O)N2)cc1` (stereo not drawn) [Compound 1a, 4-[2-(2-Hydroxyphenyl)-1,3-thiazolidine-4-carbonyl]-aminobenzoic Acid] yielded a melting point of 135 to 136 °C.

Compound `O=C(C1CSC(c2ccccc2O)N1)N1CCOCC1` (stereo not drawn) [Compound 1b, [2-(2-Hydroxyphenyl)-1,3-thiazolidin-4-yl](morpholin-4-yl)-methanone] displayed a melting point of 128 to 129 °C. The same measure, in the same setting: next, `O=C(Nc1ccc(O)cc1)C1CSC(c2ccccc2O)N1` (stereo not drawn) [Compound 1c, 2-(2-Hydroxyphenyl)-N-(4-hydroxyphenyl)-1,3-thiazolidine-4-carboxamide]: 109 to 111 °C. `O=C(O)c1ccc(NC(=O)C2CSC(c3ccccc3O)N2)cc1O` (stereo not drawn) [Compound 1d, 2-Hydroxy-4-[2-(2-hydroxyphenyl)-1,3-thiazolidine-4-carbonyl]-aminobenzoic Acid] showed a melting point of 134 to 135 °C. For the same compound, in data set [1], the “IC50 in the DPPH free radical scavenging assay” value was found to be 18.27 ± 1.1 µg/mL (≈ 50.7 µM). In turn, `COc1ccc(NC(=O)C2CSC(c3ccccc3O)N2)cc1` (stereo not drawn) [Compound 1e, 2-(2-Hydroxyphenyl)-N-(4-methoxyphenyl)-1,3-thiazolidine-4-carboxamide] had a melting point of 83 to 84 °C.

With `COc1ccccc1C1NC(C(=O)Nc2ccc(C(=O)O)cc2)CS1` (stereo not drawn) [Compound 2a, 4-[2-(2-Methoxyphenyl)-1,3-thiazolidine-4-carbonyl]-aminobenzoic Acid], the melting point was 116 to 117 °C. Also, the “Tyrosinase inhibitory activity, in words” value at mushroom tyrosinase is reported as “moderate activity”. Compound `COc1ccccc1C1NC(C(=O)Nc2ccc(C(=O)O)c(O)c2)CS1` (stereo not drawn) [Compound 2d, 2-Hydroxy-4-[2-(2-methoxyphenyl)-1,3-thiazolidine-4-carbonyl]-aminobenzoic Acid] had a melting point of 112 to 113 °C. Also, the “IC50 in the DPPH free radical scavenging assay” value in data set [1] is listed as 18.17 ± 1.0 µg/mL (≈ 48.5 µM). In addition, the “Tyrosinase inhibitory activity, in words” value at mushroom tyrosinase was “moderate activity”. `O=C(O)c1ccc(NC(=O)C2CSC(c3ccc(O)cc3)N2)cc1` (stereo not drawn) [Compound 3a, 4-[2-(4-Hydroxyphenyl)-1,3-thiazolidine-4-carbonyl]-aminobenzoic Acid] returned a melting point of 164 to 166 °C. Same read-out and setting: the result for `O=C(Nc1ccc(O)cc1)C1CSC(c2ccc(O)cc2)N1` (stereo not drawn) [Compound 3c, N,2-Bis(4-hydroxyphenyl)-1,3-thiazolidine-4-carboxamide] reads 174 to 176 °C; that for `O=C(O)c1ccc(NC(=O)C2CSC(c3ccc(O)cc3)N2)cc1O` (stereo not drawn) [Compound 3d, 2-Hydroxy-4-[2-(4-hydroxyphenyl)-1,3-thiazolidine-4-carbonyl]-aminobenzoic Acid], 130 to 131 °C. On to `COc1ccc(NC(=O)C2CSC(c3ccc(O)cc3)N2)cc1` (stereo not drawn) [Compound 3e, 2-(4-Hydroxyphenyl)-N-(4-methoxyphenyl)-1,3-thiazolidine-4-carboxamide], for which the melting point fell in the range of 115 to 117 °C. The “Tyrosinase inhibitory activity, in words” value on mushroom tyrosinase is “moderate activity”.

With `COc1ccc(C2NC(C(=O)Nc3ccc(C(=O)O)cc3)CS2)cc1` (stereo not drawn) [Compound 4a, 4-[2-(4-Methoxyphenyl)-1,3-thiazolidine-4-carbonyl]-aminobenzoic Acid], the melting point was in the range of 94 to 95 °C. The same measure, in the same setting: next, `COc1ccc(C2NC(C(=O)Nc3ccc(C(=O)O)c(O)c3)CS2)cc1` (stereo not drawn) [Compound 4d, 2-Hydroxy-4-[2-(4-methoxyphenyl)-1,3-thiazolidine-4-carbonyl]-aminobenzoic Acid]: 109 to 110 °C. As for `COc1ccc(NC(=O)C2CSC(c3ccc(OC)cc3)N2)cc1` (stereo not drawn) [Compound 4e, N,2-Bis(4-methoxyphenyl)-1,3-thiazolidine-4-carboxamide], the melting point lay within 129 to 131 °C. Further, at mushroom tyrosinase, the “Tyrosinase inhibitory activity, in words” value is listed as “moderate activity”. With `O=C1O[C@H]([C@@H](O)CO)C(O)=C1O` [ascorbic acid, reference compound], the “IC50 in the DPPH free radical scavenging assay” value in data set [1] is 7.83 ± 0.5 µg/mL (≈ 44.5 µM).
